Legend:
[1] = tested on: BEAS-2B cells; test: MTT cytotoxicity assay on normal human lung epithelial cells; conditions: 48 h, read-out: BEAS-2B IC50
[2] = tested on: MDA-MB-231 cells; test: MTT cytotoxicity assay on breast cancer cells
[3] = tested on: miRNA-132; test: miRNA-132 expression in A549 cells; format: cell-based, human; conditions: enhancement
[4] = tested on: CD-133; test: mRNA expression; format: cell-based, human; conditions: MDA-MB-231 cells; reduction to
[5] = molecular target: EGFR^L858R/T790M/C797S (Homo sapiens, UniProt P00533, C797S/L858R/T790M); test: biochemical
[6] = tested on: c-Myc; test: mRNA expression; format: cell-based, human; conditions: A549 cells
[7] = tested on: miRNA-200c; test: miRNA-200c expression in A549 cells; format: cell-based, human; conditions: enhancement
[8] = tested on: TGF; test: mRNA expression; format: cell-based, human; conditions: MDA-MB-231 cells; reduction to
[9] = tested on: c-Myc; test: mRNA expression; format: cell-based, human; conditions: MDA-MB-231 cells; reduction to
[10] = tested on: caspase-3; test: Caspase-3 activation assay; format: cell-based, human; conditions: A549 cells, compound at its IC50 concentration, 48 h
[11] = tested on: caspase-9; test: Caspase-9 activation assay; format: cell-based, human; conditions: A549 cells, compound at its IC50 concentration, 48 h
[12] = tested on: miRNA-200c; test: miRNA-200c expression in MDA-MB-231 cells; format: cell-based, human; conditions: elevation
[13] = tested on: miRNA-132; test: miRNA-132 expression in MDA-MB-231 cells; format: cell-based, human; conditions: elevation
[14] = tested on: CD-44; test: mRNA expression; format: cell-based, human; conditions: MDA-MB-231 cells; reduction to
[15] = tested on: VEGF; test: mRNA expression; format: cell-based, human; conditions: MDA-MB-231 cells; reduction to
[16] = molecular target: EGFR^WT (Homo sapiens, UniProt P00533); test: EGFR^WT kinase inhibition assay; format: biochemical
[17] = tested on: TGF; test: mRNA expression; format: cell-based, human; conditions: A549 cells
[18] = tested on: A549 cells; test: MTT cytotoxicity assay on non-small cell lung cancer cells

Sequence of EGFR^L858R/T790M/C797S (P00533 25-1210 T790M/C797S/L858R): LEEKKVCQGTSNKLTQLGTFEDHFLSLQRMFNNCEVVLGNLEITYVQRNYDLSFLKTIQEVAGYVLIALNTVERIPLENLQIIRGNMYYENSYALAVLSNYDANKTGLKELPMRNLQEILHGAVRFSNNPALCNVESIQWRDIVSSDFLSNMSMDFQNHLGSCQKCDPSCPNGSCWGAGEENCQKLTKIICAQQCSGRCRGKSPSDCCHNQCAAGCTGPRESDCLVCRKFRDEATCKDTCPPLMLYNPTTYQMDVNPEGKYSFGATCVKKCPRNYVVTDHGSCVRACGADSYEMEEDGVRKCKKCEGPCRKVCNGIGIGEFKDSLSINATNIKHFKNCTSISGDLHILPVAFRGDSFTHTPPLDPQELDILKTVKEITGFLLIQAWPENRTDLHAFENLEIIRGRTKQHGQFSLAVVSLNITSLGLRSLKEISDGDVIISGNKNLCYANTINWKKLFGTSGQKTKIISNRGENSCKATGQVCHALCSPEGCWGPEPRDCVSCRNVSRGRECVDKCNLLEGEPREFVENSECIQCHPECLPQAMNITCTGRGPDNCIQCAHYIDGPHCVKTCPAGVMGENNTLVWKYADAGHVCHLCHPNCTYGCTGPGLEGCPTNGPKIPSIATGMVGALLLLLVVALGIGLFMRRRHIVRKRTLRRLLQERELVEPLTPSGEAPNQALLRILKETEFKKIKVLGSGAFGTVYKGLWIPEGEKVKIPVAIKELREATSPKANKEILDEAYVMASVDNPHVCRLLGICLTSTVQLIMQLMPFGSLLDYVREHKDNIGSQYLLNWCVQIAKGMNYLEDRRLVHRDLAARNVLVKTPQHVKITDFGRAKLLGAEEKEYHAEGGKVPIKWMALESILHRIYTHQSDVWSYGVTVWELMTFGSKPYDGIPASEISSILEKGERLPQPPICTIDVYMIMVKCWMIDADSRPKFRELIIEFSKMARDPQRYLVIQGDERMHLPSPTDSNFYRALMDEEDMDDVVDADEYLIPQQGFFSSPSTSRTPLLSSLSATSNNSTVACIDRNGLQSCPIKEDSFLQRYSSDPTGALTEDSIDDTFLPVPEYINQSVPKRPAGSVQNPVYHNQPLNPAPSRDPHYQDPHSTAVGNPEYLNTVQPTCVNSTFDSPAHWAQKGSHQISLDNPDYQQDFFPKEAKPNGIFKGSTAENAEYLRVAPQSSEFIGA
Sequence of EGFR^WT (P00533 25-1210): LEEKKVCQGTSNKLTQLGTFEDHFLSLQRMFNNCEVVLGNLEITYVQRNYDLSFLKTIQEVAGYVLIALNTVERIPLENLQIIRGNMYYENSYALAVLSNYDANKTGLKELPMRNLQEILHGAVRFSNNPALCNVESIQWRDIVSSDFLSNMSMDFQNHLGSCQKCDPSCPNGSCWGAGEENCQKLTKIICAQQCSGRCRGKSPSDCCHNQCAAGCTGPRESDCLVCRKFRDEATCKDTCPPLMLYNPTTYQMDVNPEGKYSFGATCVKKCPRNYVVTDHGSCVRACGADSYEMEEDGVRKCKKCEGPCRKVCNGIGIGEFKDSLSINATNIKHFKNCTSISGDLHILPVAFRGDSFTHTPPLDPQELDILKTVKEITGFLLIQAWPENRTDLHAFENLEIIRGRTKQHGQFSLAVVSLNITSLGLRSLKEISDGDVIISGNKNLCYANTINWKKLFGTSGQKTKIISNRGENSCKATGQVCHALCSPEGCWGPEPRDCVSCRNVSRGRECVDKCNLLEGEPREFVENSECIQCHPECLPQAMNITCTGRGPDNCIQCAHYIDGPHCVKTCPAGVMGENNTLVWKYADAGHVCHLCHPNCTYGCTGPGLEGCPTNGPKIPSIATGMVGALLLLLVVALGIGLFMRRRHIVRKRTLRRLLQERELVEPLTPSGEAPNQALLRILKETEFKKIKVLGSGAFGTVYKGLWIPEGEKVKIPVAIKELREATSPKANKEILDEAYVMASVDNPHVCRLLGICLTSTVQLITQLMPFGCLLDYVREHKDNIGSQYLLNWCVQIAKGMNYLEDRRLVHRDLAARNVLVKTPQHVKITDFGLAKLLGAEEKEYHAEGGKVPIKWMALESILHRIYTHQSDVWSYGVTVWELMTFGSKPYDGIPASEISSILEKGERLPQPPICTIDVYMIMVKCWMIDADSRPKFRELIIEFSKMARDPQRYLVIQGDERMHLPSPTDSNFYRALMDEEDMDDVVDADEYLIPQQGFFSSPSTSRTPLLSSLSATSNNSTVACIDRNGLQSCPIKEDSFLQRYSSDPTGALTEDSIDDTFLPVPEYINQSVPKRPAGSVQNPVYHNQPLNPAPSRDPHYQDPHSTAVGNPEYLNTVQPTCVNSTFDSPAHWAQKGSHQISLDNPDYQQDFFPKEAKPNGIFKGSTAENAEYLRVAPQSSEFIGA

O=C(Nc1ccc([N+](=O)[O-])cc1)C(c1ccc(C(F)(F)F)cc1)N(C(=O)c1ccccc1Cl)c1ccccc1 (centres unmarked) [Compound 5, 2-Chloro-N-(2-((4-nitrophenyl)amino)-2-oxo-1-(4-(trifluoromethyl)phenyl)ethyl)-N-phenylbenzamide]
IC50 [1]: 70.4 ± 5.1 µM
IC50 ([2]; Homo sapiens, MDA-MB-231, 48 h, read-out: MDA-MB-231 IC50): 10.1 ± 0.6 µM
fold more potent than 5-FU ([2]; MDA-MB-231 cells, ratio of IC50 values): 1.42 fold
miRNA-132 expression, fold change compared to control [3]: 2.4 fold
expression of CD-133 compared to untreated control [4]: 0.7 fold
IC50 [5]: 0.19 ± 0.05 µM
fold reduction in the expression of c-Myc in comparison to untreated control [6]: 0.41 fold
miRNA-200c expression, fold change compared to control [7]: 1.9 fold
expression of TGF compared to untreated control [8]: 0.4 fold
expression of c-Myc compared to untreated control [9]: 0.36 fold
upregulation of caspase-3 compared to the untreated control [10]: 1.8 folds
upregulation of caspase-9 compared to the untreated control [11]: 2.3 folds
miRNA-200c expression, fold change compared to control [12]: 3.1 fold
miRNA-132 expression, fold change compared to control [13]: 3.8 fold
expression of CD-44 compared to untreated control [14]: 0.5 fold
expression of VEGF compared to untreated control [15]: 0.5 fold
IC50 [16]: 0.0021 ± 1e-05 µM
fold reduction in the expression of TGF in comparison to untreated control [17]: 0.69 fold
fold more potent than 5-FU ([18]; A549 cells, ratio of IC50 values): 1.82 fold
IC50 ([18]; Homo sapiens, A549, 48 h, read-out: A549 IC50): 6.2 ± 0.3 µM

From publication PMC12150293 (RSC Advances, 2025)
